The source of these data is ChEMBL document CHEMBL4342440, “Potential cytotoxic and anti-metastatic effects of berberine on gynaecological cancers with drug-associated resistance” (Eur J Med Chem, 2020).

Some results are limits rather than exact numbers.

Data set [1] concerns HeLa. Nature of the data set: Cytotoxicity against human HeLa cells measured after 48 hrs by SRB assay. Format: functional, cell-based.
The subject of data set [2] is Ca-Ski. Nature of the data set: Cytotoxicity against human CaSki cells measured after 48 hrs by SRB assay. Format: functional, cell-based.
The subject of data set [3] is HeLa. The data set is described as follows: Cytotoxicity against human HeLa cells measured after 48 hrs by MTT assay. The class given is functional, cell-based.
For data set [4], the system named is Ca-Ski. Nature of the data set: Cytotoxicity against human CaSki cells measured after 48 hrs by MTT assay. Format: functional, cell-based.
A short description of data set [5]: Drug excretion in rat bile. Format: ADME, tissue-based. Conditions: read-out: Drug excretion.
In the next data set the test system is Vero. The data set is described as follows: Cytotoxicity against African green monkey Vero cells measured after 48 hrs by MTT assay. The class given is cell-based. Conditions: Chlorocebus sabaeus.
The subject of another data set is HeLa 229. Nature of the data set: Cytotoxicity against human HeLa 229 cells measured after 48 hrs by MTT assay. Format: functional, cell-based. The following applies: HeLa 229, 48 h.
Data set [6] has as its system HeLa. The data set is described as follows: Induction of apoptosis in human HeLa cells measured at 20 mg/L after 48 hrs relative to control. Format: functional.
Data set [7] concerns HeLa. Nature of the data set: Induction of apoptosis in human HeLa cells measured at 40 mg/L after 48 hrs relative to control. Format: functional.
Data set [8] can be described thus: Drug excretion in rat urine. Format: ADME, tissue-based. The following applies: read-out: Drug excretion.
A short description of data set [9]: Drug excretion in rat feces. Format: ADME, tissue-based. The following applies: faeces, read-out: Drug excretion.

Consider `COc1ccc2cc3[n+](cc2c1OCCCCCNc1nc2ccc(C(F)(F)F)cc2s1)CCc1cc2c(cc1-3)OCO2.[Cl-]`, for which the IC50 was found to be 5.47 µg/mL with HeLa [1] and 5.31 µg/mL in the data set with Ca-Ski [2].
The matching figures for `COc1ccc2cc3[n+](cc2c1OCCCCCNNc1nc2ccccc2s1)CCc1cc2c(cc1-3)OCO2.[Cl-]`: 5.47 µg/mL and 5.31 µg/mL.
`COc1cc(CN2CCN(c3ccc(F)cc3F)CC2)c2cc3[n+](cc2c1O)CCc1cc2c(cc1-3)OCO2.[Cl-]`: the IC50 fell in the range of 4.35 to 6.32 µg/mL in the data set with HeLa [1] and 3.41 to 6.08 µg/mL in the data set on Ca-Ski [2].
For `COc1cc(CN2CCN(c3ccc(C(F)(F)F)cc3)CC2)c2cc3[n+](cc2c1O)CCc1cc2c(cc1-3)OCO2.[Cl-]`, the IC50 in the data set with HeLa [3] and in the data set on Ca-Ski [4] was less than 6 µg/mL throughout.
As for `COc1ccc2cc3[n+](cc2c1OCCCCCNc1nc2ccc(C(=O)O)cc2s1)CCc1cc2c(cc1-3)OCO2.[Cl-]`, the IC50 was 5.47 µg/mL in the data set with HeLa [1] and 5.31 µg/mL in the data set with Ca-Ski [2].
On the same counts, the results for `COc1ccc2cc3[n+](cc2c1OCCCCCNc1nc2ccccc2s1)CCc1cc2c(cc1-3)OCO2.[Cl-]` are 5.47 µg/mL and 5.31 µg/mL.
On the same counts, the results for `COc1ccc2cc3[n+](cc2c1OCCCCCNc1nc2ccc([N+](=O)[O-])cc2s1)CCc1cc2c(cc1-3)OCO2.[Cl-]` are 5.47 µg/mL and 5.31 µg/mL.
On the same counts, the results for `COc1ccc2cc3[n+](cc2c1OCCCCCNc1nc2ccc(Cl)cc2s1)CCc1cc2c(cc1-3)OCO2.[Cl-]` are 5.47 µg/mL and 5.31 µg/mL.
As for `COc1cc(CN2CCN(c3ccc(Cl)cc3Cl)CC2)c2cc3[n+](cc2c1O)CCc1cc2c(cc1-3)OCO2.[Cl-]`, the IC50 lay within 4.35 to 6.32 µg/mL in the data set with HeLa [1] and 3.41 to 6.08 µg/mL in the data set on Ca-Ski [2].
On the same counts, the results for `COc1ccc2nc(NCCCCCOc3c(OC)ccc4cc5[n+](cc34)CCc3cc4c(cc3-5)OCO4)sc2c1.[Cl-]` are 5.47 µg/mL and 5.31 µg/mL.
With `COc1c(O)ccc2cc3[n+](cc12)CCc1cc2c(cc1-3)OCO2.[Cl-]` [THALIFENDINE], in [5], the dose excreted worked out at 83%.
Take `COc1cc(CN2CCN(c3ccc(C)cc3)CC2)c2cc3[n+](cc2c1O)CCc1cc2c(cc1-3)OCO2.[Cl-]`: the IC50 with HeLa [3] and with Ca-Ski [4] was less than 6 µg/mL each time.
As to `COc1cc(CN2CCN(c3ccc([N+](=O)[O-])cc3)CC2)c2cc3[n+](cc2c1O)CCc1cc2c(cc1-3)OCO2.[Cl-]`, the IC50 with HeLa [3] and in the data set on Ca-Ski [4] was less than 6 µg/mL throughout.
As to `COc1cc(CN2CCN(c3cccc(Cl)c3)CC2)c2cc3[n+](cc2c1O)CCc1cc2c(cc1-3)OCO2.[Cl-]`, the IC50 in the data set on HeLa [3] and with Ca-Ski [4] was less than 6 µg/mL throughout.
For `COc1cc(CN2CCN(c3ccccc3[N+](=O)[O-])CC2)c2cc3[n+](cc2c1O)CCc1cc2c(cc1-3)OCO2.[Cl-]`, the IC50 with HeLa [3] and in the data set on Ca-Ski [4] was less than 6 µg/mL in each case.
With `COc1ccc2cc3[n+](cc2c1OCCCCCNc1nc2ccc(C#N)cc2s1)CCc1cc2c(cc1-3)OCO2.[Cl-]`, the IC50 was found to be 5.47 µg/mL with HeLa [1] and 5.31 µg/mL with Ca-Ski [2].
On the same counts, the results for `COc1cc(CN2CCN(c3ccc(Cl)c(Cl)c3)CC2)c2cc3[n+](cc2c1O)CCc1cc2c(cc1-3)OCO2.[Cl-]` are 4.35 to 6.32 µg/mL and 3.41 to 6.08 µg/mL.
The matching figures for `COc1ccc2cc3[n+](cc2c1OCCCCCNc1nc2ccc(Br)cc2s1)CCc1cc2c(cc1-3)OCO2.[Cl-]`: 5.47 µg/mL and 5.31 µg/mL.
With `CCOc1ccc2nc(NCCCCCOc3c(OC)ccc4cc5[n+](cc34)CCc3cc4c(cc3-5)OCO4)sc2c1.[Cl-]`, the values for the half-maximal inhibitory concentration (IC50) with HeLa [1] and in the data set with Ca-Ski [2] were 5.47 µg/mL and 5.31 µg/mL, respectively.
`COc1cc(CN2CCN(c3ccc(F)cc3)CC2)c2cc3[n+](cc2c1O)CCc1cc2c(cc1-3)OCO2.[Cl-]`: the IC50 in the data set with HeLa [3] and with Ca-Ski [4] was less than 6 µg/mL throughout.
For `COc1cc(CN2CCN(c3ccc(OC(F)(F)F)cc3)CC2)c2cc3[n+](cc2c1O)CCc1cc2c(cc1-3)OCO2.[Cl-]`, the IC50 in the data set on HeLa [3] and in the data set on Ca-Ski [4] was less than 6 µg/mL each time.
For `COc1ccc(N2CCN(Cc3cc(OC)c(O)c4c[n+]5c(cc34)-c3cc4c(cc3CC5)OCO4)CC2)c(OC)c1.[Cl-]`, the IC50 is 4.35 to 6.32 µg/mL with HeLa [1] and 3.41 to 6.08 µg/mL in the data set on Ca-Ski [2].
Regarding `COc1cc(CN2CCN(c3cc(Cl)cc(Cl)c3)CC2)c2cc3[n+](cc2c1O)CCc1cc2c(cc1-3)OCO2.[Cl-]`, the results for the IC50 in the data set on HeLa [1] and in the data set on Ca-Ski [2] were 4.35 to 6.32 µg/mL and 3.41 to 6.08 µg/mL, respectively.
On the same counts, the results for `COc1cc(CN2CCN(c3cccc(C)c3C)CC2)c2cc3[n+](cc2c1O)CCc1cc2c(cc1-3)OCO2.[Cl-]` are 4.35 to 6.32 µg/mL and 3.41 to 6.08 µg/mL.
For `COc1cc(CN2CCN(c3ccccc3Cl)CC2)c2cc3[n+](cc2c1O)CCc1cc2c(cc1-3)OCO2.[Cl-]`, the IC50 with HeLa [3] and in the data set with Ca-Ski [4] was less than 6 µg/mL in each case.
`COc1ccc2cc3[n+](cc2c1OC)CCc1cc2c(cc1-3)OCO2` [BERBERINE]: the 50% inhibitory concentration (IC50) in the data set with HeLa [3] came out at 12.1 µg/mL; with Vero, 71.1 µg/mL; with HeLa 229 it was 42.9 µM. For the same compound, the Activity in the data set on HeLa [6] amounted to 16.7%; in the data set on HeLa [7], 29.6%. In addition, the dose excreted is 0.0939% in data set [8], 22.7% in data set [9] and 22.8% in data set [5].
Take `COc1ccc2cc3[n+](cc2c1OCCCCCNc1nc2c(F)cc(F)cc2s1)CCc1cc2c(cc1-3)OCO2.[Cl-]`: the IC50 in the data set on HeLa [1] came out at 5.47 µg/mL; in the data set on Ca-Ski [2] it was 5.31 µg/mL.
In the case of `COc1cc(CN2CCN(c3ccc(Cl)cc3)CC2)c2cc3[n+](cc2c1O)CCc1cc2c(cc1-3)OCO2.[Cl-]`, the IC50 in the data set with HeLa [3] and in the data set with Ca-Ski [4] was less than 6 µg/mL each time.
As to `COc1ccc2cc3[n+](cc2c1OCCCCCNc1nc2ccc(C)cc2s1)CCc1cc2c(cc1-3)OCO2.[Cl-]`, the values for the IC50 with HeLa [1] and in the data set with Ca-Ski [2] were 5.47 µg/mL and 5.31 µg/mL, respectively.
The matching figures for `COc1ccc2cc3[n+](cc2c1OCCCCCNc1nc2ccc(I)cc2s1)CCc1cc2c(cc1-3)OCO2.[Cl-]`: 5.47 µg/mL and 5.31 µg/mL.
As for `COc1cc(CN2CCN(c3cccc(F)c3F)CC2)c2cc3[n+](cc2c1O)CCc1cc2c(cc1-3)OCO2.[Cl-]`, the IC50 with HeLa [1] lay in the range of 4.35 to 6.32 µg/mL; in the data set on Ca-Ski [2] it was 3.41 to 6.08 µg/mL.
Regarding `COc1cc(CN2CCN(c3cccc(Cl)c3Cl)CC2)c2cc3[n+](cc2c1O)CCc1cc2c(cc1-3)OCO2.[Cl-]`, the IC50 in the data set on HeLa [1] fell in the range of 4.35 to 6.32 µg/mL; in the data set with Ca-Ski [2], 3.41 to 6.08 µg/mL.
The matching figures for `COc1ccc2cc3[n+](cc2c1OCCCCCNc1nc2ccc(F)cc2s1)CCc1cc2c(cc1-3)OCO2.[Cl-]`: 5.47 µg/mL and 5.31 µg/mL.
`COc1cc(CN2CCN(c3ccccc3F)CC2)c2cc3[n+](cc2c1O)CCc1cc2c(cc1-3)OCO2.[Cl-]`: the IC50 in the data set with HeLa [3] and in the data set on Ca-Ski [4] was less than 6 µg/mL in each case.
For the compound `COc1cc(CN2CCN(c3ccc(C)cc3C)CC2)c2cc3[n+](cc2c1O)CCc1cc2c(cc1-3)OCO2.[Cl-]`, the values for the IC50 in the data set with HeLa [1] and with Ca-Ski [2] were 4.35 to 6.32 µg/mL and 3.41 to 6.08 µg/mL, respectively.
